Experimental data as given in patent US20230346769A1, “USE OF SIMPLE ACYCLIC POLYAMINES FOR THE TREATMENT OF DISEASES CAUSED BY PARASITES OF THE GENUS LEISHMANIA” (Universidad De Granada, priority 2020, published 2023).

Tests used:
[1] = test system: L. infantum promastigote forms; test: In vitro activity against extracellular (promastigote) forms; assay type: cell-based, Leishmania infantum
Excerpt: (§1) Methodology: Cultures of three Leishmania species, representative of the species causing each of the clinical forms of the disease, were used for these studies. Specifically, strains MCAN/ES/2001/UCM-1 O of L.infantum, isolated and characterised in Madrid from an infected dog; MHOM/BR/1975/M2904 of L.braziliensis, isolated in Brazil in a human case, and LCR-L 133 LRC of L.donovani. isolated in Jerusalem, Israel from a case of kala-azar […] (WHO Technical Reports Series 949. Geneva: WHO. March. The cultures of parasites come from an own collection which was prepared from a biobank project (Biobank and Characterisation Unit of Strains and Species of Trypanosomatids, Responsible for Human, Animal and Plant Pathologies, Cgl-2008-03687-E/Bos.), and are available on request.
(§2) The promastigote forms of the three species studied were cultured in vitro in sterility in single-phase MTL culture medium (Medium Trypanosomes Liquid) made from Hank’s Balanced Salts (Sigma-Aldrich, H6136) enriched with 10% (v/v) of Fetal Bovine Serum (SBF-1) inactivated at 56° C./ 30 minutes. The parasite inoculum to initiate the culture was 5 × 10^4 cells/ml in 5 ml medium in 25 cm^2 Falcon® plastic flasks and kept in an oven at 28° C. The cultures were performed routinely, achieving exponential growth of the flagellates until obtaining the cell mass necessary for the subsequent studies. Both promastigote forms and amastigote forms were used to conduct the assays.
(§3) The promastigote forms of the three Leishmania strains, cultured in the manner described above, were harvested in their exponential growth phase by centrifugation at 400 g for 10 min. The number of parasites was counted in a Neubauer Haemocytometer Counting Chamber and were inoculated in a 24-well plate at a concentration of 5 ×10^4 parasites/well.
(§4) The compounds to be assayed were dissolved in DMSO at a concentration of 0.01% (v/v), concentration at which this solvent is not toxic nor has any effect on the growth of parasites. The compounds were added to the culture medium at final concentrations of 100, 50, 25 and 12.5 µM. […] M. et al. Med. Chem. 2011. 54. 970-979].

[2] = test system: L. infantum amastigote forms; test: In vitro activity against intracellular (amastigote) forms in macrophages; assay type: cell-based, Leishmania infantum
Excerpt: as §1
(§5) For the study of the in vitro effect on intracellular forms of Leishmania, the experimental model designed by the group of the present inventors was used [Sánchez-Moreno. M. et al. Med. Chem. 2012, 55, 9900-9913; Sánchez-Moreno. M. et al. J. Antimicrob. Chemother. 2012, 67, 387-397]. The macrophages were detached from the culture flask where they were attached by dry blows. To do this, it was incubated in cold for 5 minutes and after that the flask was hit with the palm of the hand until the cells were detached from the flask. Then, they were passed to a 25 ml capacity steriling conical bottom flask (Deltalab) to centrifuge them at 120 g for 5 minutes, removing the supernatant and were counted in Neubauer’s chamber. Cells were suspended in RPMI medium at a concentration of 1×10^4 cells/well, then cultured in 24-well plates into which a 12 mm round slide had previously been placed into each well. For adherence, the cells were left 24 h at 37° C. in 5% CO2. Subsequently, the cells were infected in vitro by placing Leishmania cells at the rate of 10 parasites/macrophage according to [Sánchez-Moreno. M et al. Med. Chem. 2011, 54, 970-979]. […] The products were allowed to act for 72 hours of incubation.
(§6) After that time, the crystals were removed and fixed with methanol on a slide and allowed to dry, after which DPX microscopy mounting medium (Panreac®) was added to it. Once the preparations had been mounted, they were dyed with Giemsa by diluting Azur-Eosin-Methylene Blue solution according to Giemsa DC (Code 251338) with Sorensen buffer (1:10 dilution). The preparations were covered and allowed to colour for 20 minutes, after which they were washed with distilled water and then allowed to drain and dry vertically. Finally, the amastigote forms were counted with the aim of immersion in a total of 200 cells.

[3] = test system: L. braziliensis promastigote forms; test: In vitro activity against extracellular (promastigote) forms; assay type: cell-based, Leishmania braziliensis
Excerpt: as §1, §2, §3, §4

[4] = test system: L. braziliensis amastigote forms; test: In vitro activity against intracellular (amastigote) forms in macrophages; assay type: cell-based, Leishmania braziliensis
Excerpt: as §1, §5, §6

[5] = test system: L. donovani promastigote forms; test: In vitro activity against extracellular (promastigote) forms; assay type: cell-based, Leishmania donovani
Excerpt: as §1, §2, §3, §4

[6] = test system: L. donovani amastigote forms; test: In vitro activity against intracellular (amastigote) forms in macrophages; assay type: cell-based, Leishmania donovani
Excerpt: as §1, §5, §6

J774.2 macrophages = test: Macrophage toxicity by flow cytometry; assay type: cell-based; settings: J774.2 macrophages, 72 h of culture
Experimental: Macrophage toxicity: this study used the experimental model designed by the group of inventors [I. Ramírez-Macías. et. al. J. Antimicrob. Chemother. 2011, 66(4): 813-819] wherein flow cytometry is used. Briefly, macrophages from line J774.2 (ECACC number 91051511, obtained from a BALB/c female […] tumour in 1968) were deposited in a steriling tube and centrifuged at 120 g for 5 minutes. The supernatant was discarded and the cells were resuspended in MEM + Glutamine medium with 20% SBF (fetal bovine serum). 1×10^4 cells per well were then deposited from a 24-well titration plate and incubated for 24-48 h at 37° C. in a humid atmosphere enriched with 5% CO2 to fix them. […] After 72 h of incubation, the samples were prepared for reading on a flow cytometer. Specifically, 100 µl of propidium iodide solution (100 µg/ml) was added to each well and incubated for 10 min at 28° C. in the dark. Subsequently, 100 µl/well of fluorescein diacetate (FDA) (Sigma Chemical Co) in solution (100 ng/mL) was added and incubation was repeated under the same conditions for 10 minutes. Cells were recovered by centrifugation at 400 g for 10 minutes and washing the precipitate with PBS. Finally, the results were analysed in a FACS Vantage flow cytometer (Becton Dickinson) taking into account that the cells with the plasma membrane intact emit green colour as the esterases act on the FDA, while the cells that have lost the integrity of the membrane and are not viable, emit in the range close to 580 nm by penetrating the propidium iodide by passive diffusion and specifically binding to the nucleic acids thereof. Thus, to calculate the percentage of viability, the number of dead cells compared to controls was taken into account.

[7] = IC50 of macrophages / IC50 of parasite form

In the case of “meglumine antimoniate [Glucantime, reference compound]”, the IC50 ([1]; 72 h) is reported as 18 ± 3.1 µM, the “Selectivity Index (SI) L. infantum Promastigote forms” value [1, 7] is reported as 0.8 and the IC50 ([2]; 72 h) is reported as 24.2 ± 2.6 µM. The “Selectivity Index (SI) L. infantum Amastigote forms” value [2, 7] was 0.6, the IC50 ([3]; 72 h) was 18 ± 3.1 µM and the “Selectivity Index (SI) L. brazilensis Promastigote forms” value [3, 7] was 0.6. For the same substance, the IC50 ([4]; 72 h) was 24.2 ± 2.6 µM, the “Selectivity Index (SI) L. brazilensis Amastigote forms” value [4, 7] was 0.6 and the IC50 ([5]; 72 h) was 18 ± 3.1 µM. For the same substance, the “Selectivity Index (SI) L. donvovani Promastigote forms” value [5, 7] was 0.7, the IC50 ([6]; 72 h) was 24.2 ± 2.6 µM and the “Selectivity Index (SI) L. donvovani Amastigote forms” value [6, 7] was 0.6. It also gave an IC50 (J774.2 macrophages) of 15.2 ± 1 µM.
